Experiment [1] has as its target smooth muscle angiotensin II receptor. The experiment can be described thus: Assay A: Angiotensin II Binding Activity (125I-AII displacement, rat uterine membrane preparation). The conditions noted are these: 50% displacement of specifically bound 125I-AII, rat uterine membranes, 25° C., 60 min. The procedure: Compounds of the invention were tested for ability to bind to the smooth muscle angiotensin II receptor using a rat uterine membrane preparation. […] Rat uterine membranes were prepared from fresh tissue. All procedures were carried out at 4° C. Uteri were stripped of fat and homogenized in phosphate-buffered saline at pH 7.4 containing 5 mM EDTA. The homogenate was centrifuged at 1500×g for 20 min., and the supernatant was recentrifuged at 100,000×g for 60 min. The pellet was resuspended in buffer consisting of 2 mM EDTA and 50 mM Tris-HCl (pH 7.5) to a final protein concentration of 4 mg/ml. […] The reaction was initiated by the addition of membrane protein and the mixture was incubated at 25° C. for 60 min. The incubation was terminated with ice-cold 50 mM Tris-HCl (pH 7.5) and the mixture was filtered to separate membrane-bound labelled peptide from the free ligand. The incubation tube and filter were washed with ice-cold buffer. Filters were assayed for radioactivity in a Micromedic gamma counter. Nonspecific binding was defined as binding in the presence of 10 μM of unlabelled AII. Specific binding was calculated as total binding minus nonspecific binding. […] Binding data were analyzed by a nonlinear least-squares curve fitting program.

In a further experiment the test system is rabbit aortic rings. The experiment can be described thus: Assay B: In Vitro Vascular Smooth Muscle Response for AII (antagonist activity in aortic rings). The conditions noted are these: antagonist at 10^-5 M, AII concentration-response curves, Schild calculation; aorta rings from two rabbits, two values per cell. The format is cell-based. On the procedure: Assay B: In Vitro Vascular Smooth Muscle-Resionse for AII
The compounds of the invention were tested for antagonist activity in rabbit aortic rings. Male New Zealand white rabbits (2-2.5 kg) were sacrificed using an overdose of pentobarbital and exsanguinated via the carotid arteries. The thoracic aorta was removed, cleaned of adherent fat and connective tissue and then cut into 3-mm ring segments. The endothelium was removed from the rings by gently sliding a rolled-up piece of filter paper into the vessel lumen. The rings were then mounted in a water-jacketed tissue bath, maintained at 37° C., between moveable and fixed ends of a stainless steel wire with the moveable end attached to an FT03 Grass transducer coupled to a Model 7D Grass Polygraph for recording isometric force responses. The bath was filled with 20 ml of oxygenated (95% oxygen/5% carbon dioxide) Krebs solution of the following composition (nM) : 130 NaCl, 15 NaHCO3, 15 KCl, 1.2 NaH2PO4, 1.2 MgSO4, 2.5 CaCl2, and 11.4 glucose. […] Angiotensin II concentration-response curves were then recorded (3×10^−10 to 1×10^−5 M). […] The effectiveness of the test compound was expressed in terms of pA2 values and were calculated according to H. O. Schild [Br. J. Pharmacol. Chemother., 2,189-206 (1947)]. […] Each test antagonist was evaluated in aorta rings from two rabbits.

A further experiment deals with AII pressor response. As to the kind of experiment: Assay C: In Vivo Intraduodenal Pressor Assay Response for AII Antagonists. More on the design: species or system Sprague-Dawley rats. The conditions noted are these: 30 mg/kg i.d., average of two rats; for Assay C Inhibition: inhibition of AII pressor response, anesthetized ganglion-blocked rats; for Assay C Duration: time from peak percent inhibition to 50% of peak. On the procedure:
Assay C: In Vivo Intraduodenal Pressor Assay Response for AII Antagonists
Male Sprague-Dawley rats weighing 225-300 grams were anesthetized with Inactin (100 mg/kg, i.p.) and catheters were implanted into the trachea, femoral artery, femoral vein and duodenum. Arterial pressure was recorded from the femoral artery catheter on a Gould chart recorder (Gould, Cleveland, OH). The femoral vein catheter was used for injections of angiotensin II, mecamylamine and atropine. The tracheal catheter allows for airway patency, and the duodenal catheter was used for intraduodenal (i.d.) administration of test compounds. After surgery, the rats were allowed to equilibrate for 30 minutes. Mecamylamine (3 mg/kg, 0.3 ml/kg) and atropine (400 ug/kg, 0.3 ml/kg) were then given i.v. to produce ganglion blockade. These compounds were administered every 90 minutes throughout the test procedure. Angiotensin II was given in bolus does i.v. (30 ng/kg in saline with 0.5% bovine serum albumin, 0.1 ml/kg) every 10 minutes three times or until the increase in arterial pressure produced was within 3 mmHg for two consecutive AII injections. The last two AII injections were averaged and were taken as the control AII pressor response. Ten minutes after the final control AII injection, the test compound (dissolved in sodium bicarbonate) was administered i.d. at a dose of 30 mg/kg in a volume of 0.2 ml. Angiotensin II injections were then given 5, 10, 20, 30, 45, 60, 75, 90, and 120 minutes after administration of the test compound and response of arterial pressure was monitored. The response to AII was calculated as percent of the control response and then the percent inhibition is calculated as 100 minus the percent control response. Duration of action of a test compound was defined as the time from peak percent inhibition to 50% of peak. One compound at one dose was tested in each rat. Each test compound was tested in two rats and the values for the two rats were averaged.

“And” between values parts separate entries of the source, which are not always exact repeats. Equal values may be shown once. Bounds are passed on as bounds.

Take `CCCCc1nn(CCCC)c(=O)n1Cc1ccc(-c2ccccc2C(=O)O)cc1` [Example 1, 4′-[(1,3-dibutyl-4,5-dihydro-5-oxo-1H-1,2,4-triazol-4-yl)methyl] [1,1′-biphenyl]-2-carboxylic acid]: the IC50 in experiment [1] came out at 101 nM. In the experiment with rabbit aortic rings, the “Assay B PA2” value was 7.3 and 6.7. Moreover, in the experiment with AII pressor response, the “Assay C Inhibition” value was 93% and the “Assay C Duration” value was 60 to 100 min.
Compound `CCCCc1nn(CCCC)c(=O)n1Cc1ccc(-c2ccccc2-c2nnn[nH]2)cc1` [Example 2, 2,5-dibutyl-2,4-dihydro-4-[[2-(1H-tetrazol-5-yl)[1,1′-biphenyl]-4′-yl]methyl]-3H-1,2.4-triazol-3-one] displayed an IC50 in experiment [1] of 4.9 nM. For the same compound, the “Assay B PA2” value in the experiment on rabbit aortic rings is 9.0 and 9.4. In the experiment with AII pressor response, the “Assay C Inhibition” value stood at 100% and the “Assay C Duration” value is >200 min.

Source of the values: patent US20010020100A1, “N-substituted-1, 2, 4-triazolone compounds for treatment of cardiovascular disorders” (G.D. Searle & Co., priority 1994, published 2001).
